“Also recorded” adds a separate entry of the source. *1 amine or outer side, *2 acyl side, *3 side chain or, on linkers, in order; H or OH if unused. Where a SMILES comes first, the peptide text is derived from it. Where no end group is shown, it is not given here. [ ]: non-standard residue; d: D form. X1 = C=CC(C)(C)n1cc(C[C@@H](N[*:1])C(=O)[*:2])c2ccccc21; X3 = CCCCCn1cc(C[C@@H](N[*:1])C(=O)[*:2])c2ccccc21; X4 = CCCn1cc(C[C@@H](N[*:1])C(=O)[*:2])c2ccccc21; dTrp(1-Bu) = CCCCn1cc(C[C@@H](N)C(=O)O)c2ccccc21; X2 = CCn1cc(C[C@@H](N[*:1])C(=O)[*:2])c2ccccc21; dTrp(1-Me) = Cn1cc(C[C@@H](N)C(=O)O)c2ccccc21; dNMeF = CN[C@H](Cc1ccccc1)C(=O)O
How the values were obtained:
[1] = tested on: H69 cells; test: Cell viability assay using resazurin dye, H69 cells; assay type: cell-based, human; settings: for IC50: 48 h; for fold enhancement in cytotoxicity compared to tert-Prenyl^4th-NH2 (2): H69 cell line
Experimental: (§1) Cell viability was evaluated by treating H69 and DMS79 cells with peptides 13–20 in the 0.1–30 μM range for 48 h, with subsequent use of the resazurin dye cell viability assay. IC50 values (Table 1) for all the peptides were derived from the dose response curves (Fig. S24). Table 1 also presents the IC50 values obtained for 1 and 2 previously. RPMI-1640 (with L-glutamine and NaHCO3) was obtained from Sigma-Aldrich. Heat Inactivated Fetal Bovine Serum (FBS) was obtained from Life Technologies. H69 and DMS79 SCLC cell lines were obtained from as previously stated. Cells were grown in 10% v/v FBS/RPMI-1640 (complete medium) and incubated at 37 °C in humidified air atmosphere of 5% CO2. Both, H69 and DMS79 cells are suspension cells and grow in aggregates. For the experimental part, cells were re-suspended in fresh complete medium. Dulbecco's PBS (without calcium chloride and magnesium chloride) and Resazurin sodium salt were obtained from Sigma-Aldrich. The peptide concentrations were calculated accurately using UV/VIS Spectrometer Perkin Elmer instrument and dilution of the stock concentration was made using 50% v/v FBS/sterile saline. Concentrations prepared were ranged from 0.6 to 0.002 mM. Cells were seeded in 96-well plates at a seeding density of 1 × 10^4 cells/190 μl/well in triplicates. Peptides were then added on the same day and incubated as the above conditions stated in Section 5.1. The amount of peptide solution added into each well was 10 μl, resulting in a final well concentration of 30 to 0.1 μM. Untreated control samples were also prepared. Samples for background fluorescence for the resazurin dye were also prepared using only complete medium. After 48 h incubation, resazurin dye (20 μl; 0.125 mg/ml in PBS) was added to each well and incubated as the above conditions stated in Section 5.1 for 5 h. Then, fluorescence readings were recorded using a Tecan Safire plate reader and % viability calculated. Assays were repeated three independent times. Graphs were generated using GraphPad Prism 7.00 software.

[2] = tested on: DMS79 cells; test: Cell viability assay using resazurin dye, DMS79 cells; assay type: cell-based, human; settings: for IC50: 48 h; for fold enhancement in cytotoxicity compared to tert-Prenyl^4th-NH2 (2) / fold reduction in potency/cytotoxicity compared to 16: DMS79 cell line
Experimental: as §1

[3] = Stability in neat mouse plasma (RP-HPLC); assay type: in vitro ADME
Source text: When optimising for functional activity there is also a need to assess whether the desired modification will negatively affect the stability of the peptide. Characterisation of the metabolism of peptides is useful to improve their stability in vivo. The finding that a carboxylic acid group, instead of the usual amide, at the C-terminus inactivates the cytotoxicity of 16 (results of 20 - Table 1) may compromise its use in vivo as protein de-amidation reactions are widespread in plasma. Peptides 16 and 19, being the most cytotoxic peptides, were exposed to the conditions of in vitro metabolism in plasma. Peptide 20 lacking the amide group was used as a control. Peptides 16, 19 and 20 were incubated in neat mouse plasma at 37 °C for 48 h. Peptide 2, previously tested over a shorter incubation time, was included for benchmarking purpose.
Peptides were added to neat mouse plasma at a concentration of 400 μg/ml and incubated as the above conditions stated in Section 5.1. Aliquots (20 μl) were taken at 0, 3, 24 and 48 h. To the 20 μl sample, 80 μl of solution B was added and left for 5 min, prior to 1 min sonication to precipitate plasma proteins. The sample was then centrifuged for 5 min at full speed. Then 80 μl of the supernatant was added to 120 μl of solution A and transferred into a HPLC microvial to be analysed using the C8 column. A linear gradient elution was made starting with 100% of solution A and ending after 30 mins with 100% of solution B, with a flow rate of 1 ml/min and followed at λmax 220 nm. The injection volume was 36 μl. Assays were repeated three independent times. HPLC microvials at 0 and 48 h were characterised by ESIMS using the instrument stated in Section 4.1.

[4] = tested on: serine protease; settings: cited from earlier work
[5] = Stability in S9 liver fraction from mouse with cofactors; assay type: in vitro ADME; settings: period of 3 h
Experimental: Peptides 16 and 19 were further subjected to the S9 liver fraction from mouse in the presence of cofactors for a period of 3 h. This would give further insight into the stability of the peptides towards Phase I and Phase II metabolising enzymes.
Eppendorf® tubes were used for sample preparations. Chemicals, HPLC microvials, S9 liver fraction (from mouse (CD-1), male, 20 mg/ml protein basis, vial of 1.0 mL) and co-factors: beta-nictoinamide adenine dinucleotide disodium salt hydrate (NADPH), uridine 5’-diphosphoglucuronic acid trisodium salt (UDPGA), L-glutathione (GSH) and adenosine 3’-phosphate 5’-phosphosulfate lithium salt hydrate (PAPS) were obtained from Sigma-Aldrich. RP-HPLC analysis was performed using the instrument, C8 column and solutions (A and B) stated in Section 4.2.
The preparation and analysis of the samples for peptides stability in the S9 liver fraction from mouse was similar to that for the mouse plasma studies, except that addition of cofactors for enzymes activation was required and the aliquots were taken at 0, 1, 2 and 3 h. The cofactors were added to initiate the study as previously described. Briefly, stock concentrations of NADPH (40 mM), UDPGA (20 mM), GSH (2 mM) and PAPS (2 mg/ml) were prepared using Tris buffer (200 mM) (pH 7.4) containing 2 mM magnesium chloride. […]

[6] = neat mouse plasma; settings: 37 °C, up to 48 h
[7] = S9 liver fraction (from mouse (CD-1), male, 20 mg/ml protein basis) with cofactors NADPH, UDPGA, GSH and PAPS; settings: up to 3 h

CCCCCn1cc(C[C@@H](NC(=O)[C@H](Cc2ccccc2)NC(=O)[C@@H](Cc2c[nH]c3ccccc23)NC(=O)[C@@H](Cc2ccccc2)NC)C(=O)N[C@@H](CC(C)C)C(N)=O)c2ccccc21 [Peptide 17] (H-[dNMeF][dW]F[X3]L-NH2)
IC50 [1]: 1.8 ± 0.1 µM
IC50 [2]: 2.37 ± 0.06 µM

CCCn1cc(C[C@@H](NC(=O)[C@H](Cc2ccccc2)NC(=O)[C@@H](Cc2c[nH]c3ccccc23)NC(=O)[C@@H](Cc2ccccc2)NC)C(=O)N[C@@H](CC(C)C)C(N)=O)c2ccccc21 [Peptide 15] (H-[dNMeF][dW]F[X4]L-NH2)
IC50 [1]: 1.57 ± 0.1 µM
IC50 [2]: 1.91 ± 0.03 µM

CCn1cc(C[C@@H](NC(=O)[C@H](Cc2ccccc2)NC(=O)[C@@H](Cc2c[nH]c3ccccc23)NC(=O)[C@@H](Cc2ccccc2)NC)C(=O)N[C@@H](CC(C)C)C(N)=O)c2ccccc21 [Peptide 14] (H-[dNMeF][dW]F[X2]L-NH2)
IC50 [1]: 1.83 ± 0.03 µM
IC50 [2]: 1.92 ± 0.03 µM

CCCCn1cc(C[C@@H](NC(=O)[C@H](Cc2ccccc2)NC(=O)[C@@H](Cc2c[nH]c3ccccc23)NC(=O)[C@@H](Cc2ccccc2)NC)C(=O)N[C@@H](CC(C)C)C(=O)O)c2ccccc21 [Peptide 20] (H-[dNMeF][dW]F[dTrp(1-Bu)]L-OH)
IC50 [1]: > 30 µM
% (± SE) of parent peptide to degradation product(s) in plasma studies ([3]; 37 °C, 0 hr, n = 3): 100%
% (± SE) of parent peptide to degradation product(s) in plasma studies ([3]; 37 °C, 3 hrs, n = 3): 100%
% (± SE) of parent peptide to degradation product(s) in plasma studies ([3]; 37 °C, 24 hrs, n = 3): 100%
% (± SE) of parent peptide to degradation product(s) in plasma studies ([3]; 37 °C, 48 hrs, n = 3): 100%
degradation in plasma (in words) ([3]; 37 °C, up to 48 h, RP-HPLC and MS): no sign of degradation; also recorded: complete stability in plasma
IC50 [2]: > 30 µM

[dR]PKP[dF]Q[dW]F[dW]LL-NH2
cleaved bond [4]: Leu-NH2, major

CCCCn1cc(C[C@@H](NC(=O)[C@H](Cc2ccccc2)NC(=O)[C@@H](Cc2c[nH]c3ccccc23)NC(=O)[C@@H](Cc2ccccc2)NC)C(=O)N[C@@H](CC(C)C)C(N)=O)c2ccccc21 [Peptide 16, DMePhe-DTrp-Phe-DTrp(N-butyl)-Leu-NH2] (H-[dNMeF][dW]F[dTrp(1-Bu)]L-NH2)
IC50 [1]: 1.01 ± 0.02 µM
fold enhancement in cytotoxicity compared to tert-Prenyl^4th-NH2 (2) [1]: ~3 fold
% (± SE) of parent peptide to degradation product(s) in plasma studies ([3]; 37 °C, 0 hr, n = 3): 100%
% (± SE) of parent peptide to degradation product(s) in plasma studies ([3]; 37 °C, 3 hrs, n = 3): 94.30 ± 0.20%
% (± SE) of parent peptide to degradation product(s) in plasma studies ([3]; 37 °C, 24 hrs, n = 3): > 80%
% (± SE) of parent peptide to degradation product(s) in plasma studies ([3]; 37 °C, 24 hrs, n = 3, 1440 min): 80.30 ± 0.32%
% (± SE) of parent peptide to degradation product(s) in plasma studies ([3]; 37 °C, 48 hrs, n = 3): 68.47 ± 0.23%
stability in S9 liver fraction (in words) [5]: completely stable
IC50 [2]: 1.43 ± 0.14 µM
fold enhancement in cytotoxicity compared to tert-Prenyl^4th-NH2 (2) [2]: ~3 fold

CCCCn1cc(C[C@@H](NC(=O)[C@H](Cc2ccccc2)NC(=O)[C@@H](Cc2cn(CCCC)c3ccccc23)NC(=O)[C@@H](Cc2ccccc2)NC)C(=O)N[C@@H](CC(C)C)C(N)=O)c2ccccc21 [Peptide 19] (H-[dNMeF][dTrp(1-Bu)]F[dTrp(1-Bu)]L-NH2)
IC50 [1]: 0.63 ± 0.05 µM
fold enhancement in cytotoxicity compared to tert-Prenyl^4th-NH2 (2) [1]: ~4.5 fold
% (± SE) of parent peptide to degradation product(s) in plasma studies ([3]; 37 °C, 0 hr, n = 3): 100%
% (± SE) of parent peptide to degradation product(s) in plasma studies ([3]; 37 °C, 3 hrs, n = 3): 98.67 ± 0.69%
% (± SE) of parent peptide to degradation product(s) in plasma studies ([3]; 37 °C, 24 hrs, n = 3): > 80%
% (± SE) of parent peptide to degradation product(s) in plasma studies ([3]; 37 °C, 24 hrs, n = 3, 1440 min): 89.73 ± 0.68%
% (± SE) of parent peptide to degradation product(s) in plasma studies ([3]; 37 °C, 48 hrs, n = 3): 81%
% (± SE) of parent peptide to degradation product(s) in plasma studies ([3]; 37 °C, 48 hrs, n = 3, 2880 min): 81.00 ± 2.25%
stability in S9 liver fraction (in words) [5]: completely stable
IC50 [2]: 2.31 ± 0.12 µM
fold enhancement in cytotoxicity compared to tert-Prenyl^4th-NH2 (2) [2]: ~2 fold
fold reduction in potency/cytotoxicity compared to 16 [2]: ~1.6 fold

DMePhe-DTrp-Phe-DTrp(N-tert-prenyl)-Leu-NH2 (H-[dNMeF][dW]F[X1]L-NH2; SMILES C=CC(C)(C)n1cc(C[C@@H](NC(=O)[C@H](Cc2ccccc2)NC(=O)[C@@H](Cc2c[nH]c3ccccc23)NC(=O)[C@@H](Cc2ccccc2)NC)C(=O)N[C@@H](CC(C)C)C(N)=O)c2ccccc21)
cleaved bond [6]: Leu-NH2, 3 hrs

CN[C@H](Cc1ccccc1)C(=O)N[C@H](Cc1c[nH]c2ccccc12)C(=O)N[C@@H](Cc1ccccc1)C(=O)N[C@H](Cc1cn(C)c2ccccc12)C(=O)N[C@@H](CC(C)C)C(N)=O [Peptide 13] (H-[dNMeF][dW]F[dTrp(1-Me)]L-NH2)
IC50 [1]: 3.98 ± 0.22 µM
times less active than 2 ([1]; H69): ~1.4 times
IC50 [2]: 4.03 ± 0.31 µM

C=CC(C)(C)n1cc(C[C@@H](NC(=O)[C@H](Cc2ccccc2)NC(=O)[C@@H](Cc2c[nH]c3ccccc23)NC(=O)[C@@H](Cc2ccccc2)NC)C(=O)N[C@@H](CC(C)C)C(N)=O)c2ccccc21 [Peptide 2, DMePhe-DTrp-Phe-DTrp(N-tert-prenyl)-Leu-NH2] (H-[dNMeF][dW]F[X1]L-NH2)
% (± SE) of parent peptide to degradation product(s) in plasma studies ([3]; 37 °C, 0 hr, n = 3): 100%
% (± SE) of parent peptide to degradation product(s) in plasma studies ([3]; 37 °C, 24 hrs, n = 3, listed as tert-Prenyl^4th-NH2): ~58%
metabolised at 24 h, 400 μg/ml ([3]; after 24 h exposure, read-out: degraded in plasma): ~42%

DMePhe-DTrp-Phe-DTrp(N-butyl)-Leu-NH2 (H-[dNMeF][dW]F[dTrp(1-Bu)]L-NH2; SMILES CCCCn1cc(C[C@@H](NC(=O)[C@H](Cc2ccccc2)NC(=O)[C@@H](Cc2c[nH]c3ccccc23)NC(=O)[C@@H](Cc2ccccc2)NC)C(=O)N[C@@H](CC(C)C)C(N)=O)c2ccccc21)
cleaved bond [6]: Leu-NH2, 3 hrs
not cleaved [7]: completely stable in S9 liver fraction (3 h)

CCCCn1cc(C[C@@H](NC(=O)[C@@H](Cc2ccccc2)NC)C(=O)N[C@@H](Cc2ccccc2)C(=O)N[C@H](Cc2c[nH]c3ccccc23)C(=O)N[C@@H](CC(C)C)C(N)=O)c2ccccc21 [Peptide 18] (H-[dNMeF][dTrp(1-Bu)]F[dW]L-NH2)
IC50 [1]: 4.05 ± 0.17 µM
IC50 [2]: 3.88 ± 0.15 µM
fold reduction in potency/cytotoxicity compared to 16 [2]: 3–4 fold
